Results as given in patent US8003649B2 (AstraZeneca AB, priority 2007, dated 2011).

These molecules were tested against T1, Androgen Receptor (AR) (Homo sapiens, UniProt P10275, T878A) (assay: LNCaP Androgen Receptor Down-regulation Cell Assay (immunofluorescence end point)). Details: LNCaP prostate carcinoma cells, compound incubation 20-22 hours, 50% reduction of the AR signal; read-out: Androgen Receptor Down-regulation Assay (a) IC50/μM.
T1 construct: cell based immuno-fluorescence assay using the LNCaP prostate epithelial cell line; endogenous in cells; host or cells: LNCaP clone FGC (ATCC CRL-1740)
T1 sequence (P10275 1-920 T878A): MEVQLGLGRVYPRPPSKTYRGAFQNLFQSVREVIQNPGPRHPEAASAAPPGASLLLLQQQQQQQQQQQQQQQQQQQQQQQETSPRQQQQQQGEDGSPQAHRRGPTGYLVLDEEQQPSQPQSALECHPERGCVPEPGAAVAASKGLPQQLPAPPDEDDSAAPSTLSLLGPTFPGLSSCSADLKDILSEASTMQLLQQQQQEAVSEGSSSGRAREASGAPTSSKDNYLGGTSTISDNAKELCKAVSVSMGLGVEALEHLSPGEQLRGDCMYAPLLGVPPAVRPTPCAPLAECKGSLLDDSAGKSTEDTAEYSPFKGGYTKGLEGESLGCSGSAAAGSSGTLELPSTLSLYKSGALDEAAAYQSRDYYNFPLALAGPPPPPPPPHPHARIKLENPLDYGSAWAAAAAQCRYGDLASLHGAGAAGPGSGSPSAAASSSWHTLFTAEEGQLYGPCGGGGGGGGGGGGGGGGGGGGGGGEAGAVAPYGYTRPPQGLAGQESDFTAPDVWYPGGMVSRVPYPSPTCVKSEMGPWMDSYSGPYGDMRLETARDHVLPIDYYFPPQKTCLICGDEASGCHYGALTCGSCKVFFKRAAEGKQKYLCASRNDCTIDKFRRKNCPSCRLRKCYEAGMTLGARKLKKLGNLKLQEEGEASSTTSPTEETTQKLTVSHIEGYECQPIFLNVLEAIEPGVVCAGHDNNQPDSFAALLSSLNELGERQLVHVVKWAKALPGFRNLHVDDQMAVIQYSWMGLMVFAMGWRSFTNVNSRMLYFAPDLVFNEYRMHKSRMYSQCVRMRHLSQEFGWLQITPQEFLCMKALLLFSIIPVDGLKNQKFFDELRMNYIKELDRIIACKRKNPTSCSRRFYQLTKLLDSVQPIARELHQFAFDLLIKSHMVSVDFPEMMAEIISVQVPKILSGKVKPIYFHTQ
Format: cell-based
Procedure, shortened: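 AR loss reported as IC50 from curve fits of fluorescence dose-response data, with AR immunostained and read by laser-scanning cytometry. Compound exposure was 20-22 h at 37° C in LNCaP cells grown in 5% charcoal-stripped FBS and plated overnight beforehand.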

| SMILES | DC50 |
| --- | --- |
| FC(F)(F)c1nnc2ccc(N3CCC(COc4ccc(Cl)cc4)CC3)nn12 [Example 470] | 4.6 µM |
| FC(F)(F)c1ccccc1OCC1CCN(c2ccc3nnc(C(F)(F)F)n3n2)CC1 [Example 471] | 2 µM |
| FC(F)(F)c1nnc2ccc(N3CCC(COc4cccc(Cl)c4)CC3)nn12 [Example 473] | 3.2 µM |
| N#Cc1ccc(OCC2CCN(c3ccc4nnc(C(F)(F)F)n4n3)CC2)cc1 [Example 474] | 0.96 µM |
| FC(F)(F)c1nnc2ccc(N3CCC(COc4ccccc4Cl)CC3)nn12 [Example 475] | > 15 µM |
| N#Cc1cccc(OCC2CCN(c3ccc4nnc(C(F)(F)F)n4n3)CC2)c1 [Example 476] | 3.5 µM |
| FC(F)(F)c1nnc2ccc(N3CCN(Cc4c[nH]c5cnccc45)CC3)nn12 [Example 477] | 6.3 µM |
| FC(F)(F)c1nnc2ccc(N3CCN(Cc4c[nH]c5ccncc45)CC3)nn12 [Example 480] | 9.6 µM |
| FC(F)(F)c1nnc2ccc(N3CCC(COC4COC4)CC3)nn12 [Example 481] | 6.6 µM |
| FC(F)(F)COCC1CCN(c2ccc3nnc(C(F)(F)F)n3n2)CC1 [Example 482] | 1.8 µM |
| Fc1cccc(OC2CN(c3ccc4nnc(C(F)(F)F)n4n3)C2)c1 [Example 483, 6-[3-(3-fluorophenoxy)azetidin-1-yl]-3-(trifluoromethyl)[1,2,4]triazolo[4,3-b]pyridazine] | > 30 µM |
| Fc1ccc(OC2CN(c3ccc4nnc(C(F)(F)F)n4n3)C2)cc1 [Example 484] | > 14 µM |
| COc1ccc(OC2CN(c3ccc4nnc(C(F)(F)F)n4n3)C2)cc1 [Example 486] | > 13 µM |
| CC(C)(C)OCC1CCN(c2ccc3nnc(C(F)(F)F)n3n2)CC1 [Example 489, 6-[4-(tert-butoxymethyl)piperidin-1-yl]-3-(trifluoromethyl)[1,2,4]triazolo[4,3-b]pyridazine] | 3.6 µM |
| Fc1cccc(OCC2CN(c3ccc4nnc(C(F)(F)F)n4n3)C2)c1 [Example 490] | 5.9 µM |
| Fc1cccc(OCC2CN(c3ccc4nnc(C(F)(F)F)n4n3)C2)c1 [Example 491] | 7.2 µM |
| FC(F)(F)c1nnc2ccc(N3CC(COc4cccnc4)C3)nn12 [Example 492] | > 30 µM |
| FC(F)(F)c1nnc2ccc(N3CCC(c4cn(CCN5CCCC5)c5ccccc45)CC3)nn12 [Example 508, 6-[4-[1-(2-pyrrolidin-1-ylethyl)-1H-indol-3-yl]piperidin-1-yl]-3-(trifluoromethyl)[1,2,4]triazolo[4,3-b]pyridazine] | 2.2 µM |
| Cn1nccc1CCOc1ccc(N2CCN(c3ccc4nnc(C(F)(F)F)n4n3)CC2)cc1 [Example 514, 6-[4-[4-[2-(1-methyl-1H-pyrazol-5-yl)ethoxy]phenyl]piperazin-1-yl]-3-(trifluoromethyl)[1,2,4]triazolo[4,3-b]pyridazine] | 0.87 µM |
| FC(F)(F)c1nnc2ccc(N3CCCC(c4ccccc4)C3)nn12 (stereo not shown) [Example 515, 6-(3-phenylpiperidin-1-yl)-3-(trifluoromethyl)[1,2,4]triazolo[4,3-b]pyridazine] | 1.4 µM |
| FC(F)(F)c1nnc2ccc(N3CCCC(COc4ccccc4)C3)nn12 (stereo not shown) [Example 516, 6-[3-(Phenoxymethyl)piperidin-1-yl]-3-(trifluoromethyl)[1,2,4]triazolo[4,3-b]pyridazine] | 1.4 µM |
| FC(F)(F)c1ccc(C2CCN(c3ccc4nnc(C(F)(F)F)n4n3)CC2)cc1 [Example 524] | 3.2 µM |
| Fc1ccccc1OC1CCN(c2ccc3nnc(C(F)(F)F)n3n2)CC1 [Example 529] | 1.9 µM |
| FC(F)(F)c1nnc2ccc(N3CCC(Oc4ccccc4Cl)CC3)nn12 [Example 530] | 1.6 µM |
| FC(F)(F)c1nnc2ccc(N3CCC(Cc4ccccc4)CC3)nn12 [Example 535] | 1.9 µM |

Results, then the molecule that gave them:

| DC50 | SMILES |
| --- | --- |
| 0.43 µM | COc1ccc2[nH]cc(C3CCN(c4ccc5nnc(C(F)(F)F)n5n4)CC3)c2c1 [Example 494, 6-[4-(5-methoxy-1H-indol-3-yl)piperidin-1-yl]-3-(trifluoromethyl)[1,2,4]triazolo[4,3-b]pyridazine] |
| 0.35 µM | N#Cc1ccc2[nH]cc(C3CCN(c4ccc5nnc(C(F)(F)F)n5n4)CC3)c2c1 [Example 495, 3-[1-[3-(trifluoromethyl)[1,2,4]triazolo[4,3-b]pyridazin-6-yl]piperidin-4-yl]-1H-indole-5-carbonitrile] |
| 2.8 µM | CN1CCN(C(=O)c2ccc3[nH]cc(C4CCN(c5ccc6nnc(C(F)(F)F)n6n5)CC4)c3c2)CC1 [Example 497] |
| 2.4 µM | COCCNC(=O)c1ccc2[nH]cc(C3CCN(c4ccc5nnc(C(F)(F)F)n5n4)CC3)c2c1 [Example 498] |
| 1.7 µM | CN(C)C(=O)c1ccc2[nH]cc(C3CCN(c4ccc5nnc(C(F)(F)F)n5n4)CC3)c2c1 [Example 499] |
| > 18 µM | O=C(c1ccc2[nH]cc(C3CCN(c4ccc5nnc(C(F)(F)F)n5n4)CC3)c2c1)N1CC[C@@H](O)C1 [Example 500] |
| 2.2 µM | O=C(c1ccc2[nH]cc(C3CCN(c4ccc5nnc(C(F)(F)F)n5n4)CC3)c2c1)N1CCOCC1 [Example 502] |
| 4.3 µM | O=C(NCCN1CCOCC1)c1ccc2[nH]cc(C3CCN(c4ccc5nnc(C(F)(F)F)n5n4)CC3)c2c1 [Example 503] |
| 1.9 µM | COCCN(C)C(=O)c1ccc2[nH]cc(C3CCN(c4ccc5nnc(C(F)(F)F)n5n4)CC3)c2c1 [Example 504] |
| > 19 µM | O=C(c1ccc2[nH]cc(C3CCN(c4ccc5nnc(C(F)(F)F)n5n4)CC3)c2c1)N1CC[C@H](O)C1 [Example 505] |
| 0.53 µM | FC(F)(F)c1nnc2ccc(N3CCC(c4c[nH]c5ccccc45)CC3)nn12 [Example 507, 6-[4-(1H-indol-3-yl)piperidin-1-yl]-3-(trifluoromethyl)[1,2,4]triazolo[4,3-b]pyridazine] |
| 0.87 µM | COCCN(C)C(=O)c1ccc(C2CCN(c3ccc4nnc(C(F)(F)F)n4n3)CC2)cc1 [Example 512, N-(2-methoxyethyl)-N-methyl-4-[1-[3-(trifluoromethyl)[1,2,4]triazolo[4,3-b]pyridazin-6-yl]piperidin-4-yl]benzamide] |
| 5.4 µM | CS(=O)(=O)c1ccc(C2CCN(c3ccc4nnc(C(F)(F)F)n4n3)CC2)cc1 [Example 521] |
| 3.9 µM | CNC(=O)c1ccc(C2CCN(c3ccc4nnc(C(F)(F)F)n4n3)CC2)cc1 [Example 522] |
| 1 µM | COc1ccc(C2CCN(c3ccc4nnc(C(F)(F)F)n4n3)CC2)cc1 [Example 523] |
| 5.2 µM | Fc1cccc(C2CCN(c3ccc4nnc(C(F)(F)F)n4n3)CC2)c1 [Example 525] |
| 2.5 µM | COc1cccc(C2CCN(c3ccc4nnc(C(F)(F)F)n4n3)CC2)c1 [Example 526] |
| 0.67 µM | COc1cccc(OC2CCN(c3ccc4nnc(C(F)(F)F)n4n3)CC2)c1 [Example 527] |
| 2.2 µM | COc1ccc(OC2CCN(c3ccc4nnc(C(F)(F)F)n4n3)CC2)cc1 [Example 528] |
| 1.8 µM | COc1ccccc1OC1CCN(c2ccc3nnc(C(F)(F)F)n3n2)CC1 [Example 531] |
| 0.98 µM | Fc1cccc(OC2CCN(c3ccc4nnc(C(F)(F)F)n4n3)CC2)c1 [Example 532] |
| 2.3 µM | O=C(c1ccccc1)C1CCN(c2ccc3nnc(C(F)(F)F)n3n2)CC1 [Example 533] |
| 2.3 µM | O=C(c1ccc(F)cc1)C1CCN(c2ccc3nnc(C(F)(F)F)n3n2)CC1 [Example 534] |
| 1.4 µM | Fc1ccc(CC2CCN(c3ccc4nnc(C(F)(F)F)n4n3)CC2)cc1 [Example 536] |
